# Reference: patent US9585865B2, “Small molecule modulators of the cold and menthol receptor TRPM8” (B.R.A.I.N. Biotechnology Research and Information Network AG, priority 2011, dated 2017)
# Values joined by “and” are separate entries in the source; they are usually repeats but may differ in a detail not shown here. Equal values may be shown once.
# Legend:
# human TRPA1 = biological target: T1, human TRPA1 (Homo sapiens, UniProt O75762); test: functional cell based calcium assay, cells recombinantly expressing human TRPA1; conditions: activator (agonist) of TRPA1; intracellular calcium, calcium-sensitive dye fluorescence
# T1 construct: expressed in transfected cells; host or cells: HEK293 (human cells)
# T1 sequence (O75762 whole entry): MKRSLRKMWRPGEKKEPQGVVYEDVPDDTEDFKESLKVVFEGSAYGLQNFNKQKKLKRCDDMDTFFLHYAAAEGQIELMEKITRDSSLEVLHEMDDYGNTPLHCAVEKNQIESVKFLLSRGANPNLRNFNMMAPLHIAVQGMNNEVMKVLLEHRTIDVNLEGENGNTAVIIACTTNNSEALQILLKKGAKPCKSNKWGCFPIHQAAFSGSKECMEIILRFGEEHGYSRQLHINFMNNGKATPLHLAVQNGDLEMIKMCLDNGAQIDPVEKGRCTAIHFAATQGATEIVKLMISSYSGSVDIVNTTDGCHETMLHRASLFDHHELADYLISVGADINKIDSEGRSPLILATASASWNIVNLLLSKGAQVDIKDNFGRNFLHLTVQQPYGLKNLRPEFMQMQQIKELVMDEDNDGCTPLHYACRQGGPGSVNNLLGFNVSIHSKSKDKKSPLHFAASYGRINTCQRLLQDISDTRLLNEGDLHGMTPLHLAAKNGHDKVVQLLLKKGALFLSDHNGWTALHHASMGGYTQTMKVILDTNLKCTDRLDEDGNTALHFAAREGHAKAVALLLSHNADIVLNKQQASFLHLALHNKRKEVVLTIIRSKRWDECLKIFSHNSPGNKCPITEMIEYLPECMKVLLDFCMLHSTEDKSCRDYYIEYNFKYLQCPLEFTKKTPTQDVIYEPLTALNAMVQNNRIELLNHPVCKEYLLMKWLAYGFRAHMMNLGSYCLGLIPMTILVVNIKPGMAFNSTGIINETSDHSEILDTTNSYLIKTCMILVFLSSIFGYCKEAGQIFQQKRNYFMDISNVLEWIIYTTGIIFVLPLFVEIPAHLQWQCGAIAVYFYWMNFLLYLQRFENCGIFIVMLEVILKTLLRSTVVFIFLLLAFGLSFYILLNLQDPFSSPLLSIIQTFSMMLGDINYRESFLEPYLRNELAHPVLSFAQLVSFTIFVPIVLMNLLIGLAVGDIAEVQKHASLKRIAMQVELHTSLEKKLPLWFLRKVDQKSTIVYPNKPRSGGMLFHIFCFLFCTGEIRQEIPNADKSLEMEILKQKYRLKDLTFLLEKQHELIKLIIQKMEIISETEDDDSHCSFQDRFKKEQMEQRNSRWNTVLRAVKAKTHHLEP
# From the text: (§1) As used herein, a functional cell based assay under standard conditions means evaluating the cellular activity of compounds with regard to the modulation of the intracellular calcium level using cells recombinantly expressing human TRPM8 or human TRPA1. In particular, in this context the term “standard conditions” means an activity test using HEK293 cells recombinantly expressing either human TRPM8 or human TRPA1, which cells have been contacted with a calcium-sensitive dye (such as Fluo-4AM, i.e. Fluo-4-acetoxymethylester), wherein the cells are incubated with the compound to be tested, and receptor modulation is quantitatively detected by calcium-dependent changes is fluorescence intensity. Such a test system is disclosed, inter alia, in Behrendt H J et al., Br. J. Pharmacol. 2004, 141:737-745, which is enclosed herein by reference.
# (§2) A screening for novel modulators of TRPM8 was conducted. For the screening, a routine screening setup was used. In particular, the compounds comprised by a compound library were tested for agonistic activity towards TRPM8 and a dose response analysis of the most promising candidates was conducted (TRPM8 versus TRPA1). In particular, promising candidates were analyzed with regard to their EC50 values as well as their efficacy values, and 7 development candidates were selected (i.e. Compounds I.3, II.3, III.3, IV.3, V.3, VI.3, and VII.3, as described herein above).
# (§3) For the above analysis, a functional cell based assay under standard conditions as described herein was used, i.e. the cellular activity of the compounds with regard to the modulation of the intracellular calcium level was evaluated using cells recombinantly expressing human TRPM8 or human TRPA1. In particular, human cells recombinantly expressing either human TRPM8 or human TRPA1 were used, which cells have been contacted with a calcium-sensitive dye, wherein the cells were incubated with the compound to be tested, and receptor modulation was quantitatively detected by calcium-dependent changes in fluorescence intensity. Such a test system is disclosed, inter alia, in Behrendt H J et al., Br. J. Pharmacol. 2004, 141:737-745, which is enclosed herein by reference. Such a test system is also disclosed, inter alia, in WO 2010/026094, which is also enclosed herein by reference. However, it should be understood that any screening method and method suitable for evaluating the agonistic activity of compounds towards a channel (such as TRPM8) can be used. Suitable methods are routine and known to the skilled person.
# human TRPM8 = biological target: T2, human TRPM8 (Homo sapiens, UniProt Q7Z2W7); test: functional cell based calcium assay, cells recombinantly expressing human TRPM8; conditions: for EC50: activator (agonist) of TRPM8, intracellular calcium, calcium-sensitive dye fluorescence; for EC50 as activator of TRPM8 times lower than EC50 as activator of TRPA1: ratio EC50 TRPA1 / EC50 TRPM8
# T2 construct: expressed in transfected cells; host or cells: HEK293 (human cells)
# T2 sequence (Q7Z2W7 whole entry): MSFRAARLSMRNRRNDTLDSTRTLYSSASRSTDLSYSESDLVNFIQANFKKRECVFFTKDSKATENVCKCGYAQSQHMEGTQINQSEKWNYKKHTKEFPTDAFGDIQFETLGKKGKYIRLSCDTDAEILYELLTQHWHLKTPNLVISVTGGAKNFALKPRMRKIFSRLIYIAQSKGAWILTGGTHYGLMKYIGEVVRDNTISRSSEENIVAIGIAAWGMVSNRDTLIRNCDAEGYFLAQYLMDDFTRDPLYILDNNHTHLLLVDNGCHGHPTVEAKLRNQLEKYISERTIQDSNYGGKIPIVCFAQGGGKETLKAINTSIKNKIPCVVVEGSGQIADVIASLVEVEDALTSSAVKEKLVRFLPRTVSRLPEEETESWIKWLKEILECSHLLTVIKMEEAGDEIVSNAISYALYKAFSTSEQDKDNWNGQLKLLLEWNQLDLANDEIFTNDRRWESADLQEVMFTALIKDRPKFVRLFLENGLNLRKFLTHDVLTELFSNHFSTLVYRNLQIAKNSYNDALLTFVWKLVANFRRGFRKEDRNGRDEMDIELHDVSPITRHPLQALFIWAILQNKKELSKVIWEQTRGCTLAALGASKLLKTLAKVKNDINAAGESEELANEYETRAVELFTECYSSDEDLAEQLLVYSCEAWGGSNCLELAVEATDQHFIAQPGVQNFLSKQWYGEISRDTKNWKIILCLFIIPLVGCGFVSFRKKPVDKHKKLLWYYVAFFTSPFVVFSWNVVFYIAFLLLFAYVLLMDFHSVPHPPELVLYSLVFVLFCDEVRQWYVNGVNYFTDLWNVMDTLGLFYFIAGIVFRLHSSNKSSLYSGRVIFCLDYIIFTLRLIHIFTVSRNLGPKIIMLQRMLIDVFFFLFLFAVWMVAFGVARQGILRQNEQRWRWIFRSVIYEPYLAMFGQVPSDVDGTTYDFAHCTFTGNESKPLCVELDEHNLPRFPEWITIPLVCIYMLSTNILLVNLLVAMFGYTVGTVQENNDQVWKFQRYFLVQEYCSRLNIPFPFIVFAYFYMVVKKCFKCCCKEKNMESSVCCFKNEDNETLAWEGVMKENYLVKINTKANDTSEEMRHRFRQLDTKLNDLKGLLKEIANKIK
# From the text: as §1, §2, §3
EC50 (human TRPA1),EC50 (human TRPM8),EC50 as activator of TRPM8 times lower than EC50 as activator of TRPA1 (human TRPM8),Compound
~72.4 µM and 72.4 µM,~2.01 µM and 2.01 µM,about 36 times,"COc1ccc2c(=O)c(-c3ccccc3)c(C)oc2c1 [Compound I.3, 7-methoxy-2-methyl-3-phenyl-4H-chromen-4-one]"
~123 µM and 123 µM,~8.01 µM and 8.01 µM,about 15.4 times,"COc1ccc(OC)c(NC=C2C(=O)CC(C)(C)CC2=O)c1 [Compound II.3, 2-{[(2,5-dimethoxyphenyl)amino]methylidene}-5,5-dimethylcyclohexane-1,3-dione]"
~113 µM and 113 µM,~5.27 µM and 5.27 µM,about 21.5 times,"Cc1ccc(-c2cc(C(=O)N/N=C/c3ccncc3)[nH]n2)s1 [Compound III.3, 3-(5-methylthiophen-2-yl)-N′-[(1E)-pyridin-4-ylmethylidene]-1H-pyrazole-5-carbohydrazide]"
~118 µM and 118 µM,~4.12 µM and 4.12 µM,about 28.6 times,"CCCc1cc(=O)[nH]c(SCC(=O)Nc2cc(Cl)ccc2Cl)n1 [Compound IV.3, N-(2,5-dichlorophenyl)-2-[(6-oxo-4-propyl-1,6-dihydropyrimidin-2-yl)sulfanyl]acetamide]"
~138 µM and 138 µM,~7.53 µM and 7.53 µM,about 18.4 times,"Cc1nc2ccccc2n1CCC(=O)N1CCN(Cc2ccc3c(c2)OCO3)CC1 [Compound V.3, 1-[4-(2H-1,3-benzodioxol-5-ylmethyl)piperazin-1-yl]-3-(2-methyl-1H-1,3-benzodiazol-1-yl)propan-1-one]"
~108 µM and 108 µM,~8.15 µM and 8.15 µM,about 13.2 times,"Cc1ccc(C(=O)NCC2(c3ccccc3)CCOCC2)cc1 [Compound VI.3, 4-methyl-N-[(4-phenyloxan-4-yl)methyl]benzamide]"
~56.6 µM and 56.6 µM,~10.9 µM and 10.9 µM,about 5.2 times,"CC(C)C(CCNCCCN(C)C)c1ccc(Cl)cc1 (stereo not drawn) [Compound VII.3, [3-(4-chlorophenyl)-4-methylpentyl][3-(dimethylamino)propyl]amine]"
